Results: US11285161B2, “Method and composition for treating mental disorder and pain associated with nerve damage” (City University of Hong Kong, priority 2019, dated 2022)

How the values were obtained:
CCK2 receptor [1] = biological target: T1, CCK2 receptor (Homo sapiens, UniProt P32239)
T1 sequence (P32239 1-447): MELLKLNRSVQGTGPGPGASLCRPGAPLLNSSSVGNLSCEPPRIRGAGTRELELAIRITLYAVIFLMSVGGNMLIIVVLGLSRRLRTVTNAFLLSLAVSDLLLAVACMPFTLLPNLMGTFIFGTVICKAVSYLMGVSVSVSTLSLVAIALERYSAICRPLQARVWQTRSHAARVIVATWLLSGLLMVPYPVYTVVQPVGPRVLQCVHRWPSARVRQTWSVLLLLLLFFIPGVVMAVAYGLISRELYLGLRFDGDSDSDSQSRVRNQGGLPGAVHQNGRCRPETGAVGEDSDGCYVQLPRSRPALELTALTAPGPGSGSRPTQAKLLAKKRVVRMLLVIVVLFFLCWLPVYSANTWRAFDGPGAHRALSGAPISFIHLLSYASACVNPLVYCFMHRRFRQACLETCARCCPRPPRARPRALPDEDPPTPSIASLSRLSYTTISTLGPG

[2] = system: spared nerve injury (SNI) mice; test: Body weight of SNI mice; format: in vivo, mouse; details: 30 ng/kg Day 7-Day 30, Day 40, vs SNI-saline, FIG. 1B
Text: (§1) The antidepressant and analgesic activities of the compound of formula (IIb) (referred to as YM022) and the compound of formula (IIIb) (referred to as YF476) were investigated in a mouse model of spared nerve injury (SNI). The SNI model is a partial denervation model in which the injured nerves produce consistent pain hypersensitivity in the territory of the spared sural nerve, wherein the spared nerve injury can provoke depressive-like behaviors. In the experiment, depressive-like behaviors were assessed by a tail suspension test and monitoring body weight. Responses to pain were tested by measuring the sensitivity to mechanical stimulation by von Frey filaments.
(§2) For the SNI surgery, the mice were anesthetized by intraperitoneal injection of ketamine (100 mg/kg) and xylazine (15 mg/kg). […]
(§3) After SNI surgery (Day 0), the mice were treated with the compound of formula (IIb) (referred to as YM022) and the compound of formula IIIb (referred to as YF476), both at 30 ng/kg, for 24 days (Day 7-Day 30). The bodyweight of the mice were measured (FIG. 1B) and the tail suspension test (FIG. 1A) was carried out on Day 40 to assess the depressive status. […] A blinded observer monitored the test for 6 min and recorded the immobility time.

mice [3] = test: Acute tail suspension test; format: in vivo, mouse; details: 3 μg/kg or 30 μg/kg intraperitoneally 30 minutes before test, vs saline, FIG. 3A
Protocol: After SNI surgery (Day 0), the mice were treated with the compound of formula (IIb) (referred to as YM022) and the compound of formula IIIb (referred to as YF476), both at 30 ng/kg, for 24 days (Day 7-Day 30). The bodyweight of the mice were measured (FIG. 1B) and the tail suspension test (FIG. 1A) was carried out on Day 40 to assess the depressive status. In the tail suspension test, each mouse was suspended by its tail and secured by adhesive tape to the suspension bar. A blinded observer monitored the test for 6 min and recorded the immobility time.
In another acute tail suspension test, mice were injected intraperitoneally with YM022 (3 μg/kg or 30 μg/kg), YF476 (3 μg/kg or 30 μg/kg) or saline 30 minutes before the test. The tail suspension test was then performed as described above.

CCK2 receptor [4] = biological target: T1, CCK2 receptor; details: cited from earlier work
[5] = system: spared nerve injury (SNI) mice; test: Tail suspension test in spared nerve injury (SNI) mice; format: in vivo, mouse; details: 30 ng/kg Day 7-Day 30, tested Day 40 (10 days after discontinuation), vs SNI-saline and Sham-saline, FIG. 1A
Text: as §1, §2, §3

mice [6] = test: Acute forced swim test; format: in vivo, mouse; details: 30 μg/kg intraperitoneally 30 minutes before test, 5-minute test, vs saline, FIG. 3B
Protocol: In the forced swim test, mice were forced to swim in a narrow cylinder from which they cannot escape. A Plexiglas cylinder (13 cm diameter and 24 cm high) containing water (22° C.±2° C.) to a depth of 10 cm was used. The mice were injected intraperitoneally with YM022 (30 μg/kg), YF476 (30 μg/kg) or saline 30 minutes before the test. After placing the animals in the cylinders, the duration of immobility during the 5-minute test were measured.

CCK1 receptor = biological target: T2, CCK1 receptor (Homo sapiens, UniProt P32238); details: read-out: IC50 to the CCK1 receptor; cited from earlier work
T2 sequence (P32238 1-428): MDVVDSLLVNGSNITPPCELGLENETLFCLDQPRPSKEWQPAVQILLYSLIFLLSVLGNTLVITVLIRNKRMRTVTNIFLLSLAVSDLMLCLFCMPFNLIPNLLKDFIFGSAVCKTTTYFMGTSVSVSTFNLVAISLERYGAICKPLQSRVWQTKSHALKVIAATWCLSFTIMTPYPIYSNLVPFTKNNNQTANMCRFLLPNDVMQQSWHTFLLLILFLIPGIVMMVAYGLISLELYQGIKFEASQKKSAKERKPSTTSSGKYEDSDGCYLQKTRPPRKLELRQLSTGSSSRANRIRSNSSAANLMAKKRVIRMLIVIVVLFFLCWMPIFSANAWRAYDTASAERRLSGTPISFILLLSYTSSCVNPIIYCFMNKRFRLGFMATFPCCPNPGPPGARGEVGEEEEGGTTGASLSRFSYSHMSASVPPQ

[7] = system: spared nerve injury (SNI) mice; test: Von Frey filament test in SNI mice; format: in vivo, mouse; details: Day 8 (after drug injection), FIG. 2
Text: as §1
For the SNI surgery, the mice were anesthetized by intraperitoneal injection of ketamine (100 mg/kg) and xylazine (15 mg/kg). The skin on the lateral surface of the left thigh was cleaned and incised, and then sterile scissors were used to expose three branches of the sciatic nerves: namely sural, common peroneal, and tibial nerves. […]
The Von Frey filament test was used 1 day before the surgery (Day-1) or on Day 1, Day 7 (after drug injection), Day 8 (after drug injection) to estimate the sensitivity of the mice to the mechanical stimulation. […] Response in three out of five stimuli was regarded as a positive reaction and the threshold level was recorded (FIG. 2).

| Compound | selectivity CCK2 versus CCK1 receptor (CCK2 receptor [1]) | body weight [2] | immobile time in acute tail suspension test (mice [3]) | IC50 (CCK2 receptor [4]) | immobile time in tail suspension test [5] | immobile time in forced swim test (mice [6]) | IC50 (CCK1 receptor) | mechanical threshold in Von Frey filament test [7] |
| --- | --- | --- | --- | --- | --- | --- | --- | --- |
| CNc1cccc(NC(=O)N[C@@H]2N=C(c3ccccn3)c3ccccc3N(CC(=O)C(C)(C)C)C2=O)c1 [YF476] | selectively inhibit CCK2 receptors | increased body weight | less immobile time | 0.11 nM | reduced immobile time | less immobile time | 500 nM | higher mechanical threshold |
| Cc1cccc(NC(=O)N[C@@H]2N=C(c3ccccc3)c3ccccc3N(CC(=O)c3ccccc3C)C2=O)c1 [YM022] | selectively inhibit CCK2 receptors | increased body weight | less immobile time | 0.07 nM | reduced immobile time | less immobile time | 63 nM | higher mechanical threshold |
